Molecular target: T1, Orexin receptor type 2 (Homo sapiens, UniProt O43614)
T1 sequence (O43614 whole entry): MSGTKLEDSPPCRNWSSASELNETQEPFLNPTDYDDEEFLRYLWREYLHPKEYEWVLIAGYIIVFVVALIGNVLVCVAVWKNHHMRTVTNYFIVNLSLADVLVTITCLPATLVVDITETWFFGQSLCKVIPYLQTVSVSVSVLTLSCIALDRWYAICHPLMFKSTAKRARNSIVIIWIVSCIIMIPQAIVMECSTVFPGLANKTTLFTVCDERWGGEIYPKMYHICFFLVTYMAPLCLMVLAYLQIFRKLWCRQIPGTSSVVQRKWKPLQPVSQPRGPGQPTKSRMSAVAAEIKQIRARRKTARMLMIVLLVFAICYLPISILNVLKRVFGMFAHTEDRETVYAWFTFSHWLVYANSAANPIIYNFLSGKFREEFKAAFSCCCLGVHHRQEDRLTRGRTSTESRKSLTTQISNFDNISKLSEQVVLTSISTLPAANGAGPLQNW
Assay: FLIPR Ca2+ Flux Assay: In a typical experiment the OX1 and OX2 receptor antagonistic activity of the compounds of the present invention was determined in accordance with the following experimental method. For intracellular calcium measurements, Chinese hamster ovary (CHO) cells expressing the rat orexin-1 receptor or the human orexin-2 receptor, are grown in Iscove's modified DMEM containing 2 mM L-glutamine, […], 1% hypoxanthine-thymidine supplement, 100 U/ml penicillin, 100 μg/ml streptomycin and 10% heat-inactivated fetal calf serum (FCS). The cells are seeded at 20,000 cells/well into Becton-Dickinson black 384-well clear bottom sterile plates coated with poly-D-lysine. All reagents were from GIBCO-Invitrogen Corp. The seeded plates are incubated overnight at 37° C. and 5% CO2. Ala-6,12 human orexin-A as the agonist is prepared as a 1 mM stock solution in 1% bovine serum albumin (BSA) and diluted in assay buffer (HBSS containing 20 mM HEPES, 0.1% BSA and 2.5 mM probenecid, pH7.4) for use in the assay at a final concentration of 70 pM. Test compounds are prepared as 10 mM stock solution in DMSO, then diluted in 384-well plates, first in DMSO, then assay buffer. On the day of the assay, cells are washed 3 times with 100 μl assay buffer and then incubated for 60 min (37° C., 5% CO2) in 60 μl assay buffer containing 1 μM Fluo-4AM ester, 0.02% pluronic acid, and 1% BSA. […]
Format: cell-based

For `CN(CCN(CC(F)(F)F)C(=O)c1ccccc1-n1nccn1)c1cc(C#N)ccn1`, the IC50 was 113 nM.
